Results from EPA's ToxValDB 9.5.

How the values were obtained:
[1] = tested on: Rattus norvegicus; experiment: FEL; higher = less toxic; details: reproduction developmental; duration: 54 days; oral; gavage; F; Wistar; generation: P0; P0: Whole Body: Mortality
[2] = tested on: Rattus norvegicus; details: oral, gavage
[3] = developmental, duration: 54 days, M/F, Wistar, generation: F1, F1: Developmental: Whole Body: Dams with Stillborn Pups + F1: Developmental: Whole Body: External Abnormalities + F1: Developmental: Whole …
[4] = developmental, duration: 54 days, generation: F1, F1: Developmental: Whole Body: Dams with Liveborn Pups
[5] = reproduction developmental, duration: 28 days, M, Wistar, generation: P0, P0: Reproductive: Reproductive Organs: Reproductive Organ Histopathology + P0: Reproductive: Whole Body: Copulation Index
[6] = reproduction developmental, duration: 28 days, M, Wistar, generation: P0, P0: Whole Body: Copulation Index
[7] = reproduction developmental, duration: 54 days, F, Wistar, generation: P0, P0: Developmental: Uterus: Implantation + P0: General Toxicity: Whole Body: Clinical Observations + P0: General Toxicity: Whole Body: …
[8] = reproduction developmental, duration: 54 days, F, Wistar, generation: P0, P0: Reproductive: Reproductive Organs: Reproductive Organ Histopathology + P0: Reproductive: Whole Body: Copulation Index + P0: Reproductive…
[9] = reproduction developmental, duration: 54 days, F, Wistar, generation: P0, P0: Reproductive: Whole Body: Length of Gestation
[10] = reproduction developmental, duration: 54 days, F, Wistar, generation: P0, P0: Whole Body: Clinical Observations + P0: Whole Body: Maternal Body Weight + P0: Whole Body: Maternal Body Weight Change
[11] = reproduction developmental, duration: 54 days, F, Wistar, generation: P0, P0: Whole Body: Copulation Index
[12] = reproduction developmental, duration: 54 days, F, Wistar, generation: P0, P0: Whole Body: Length of Gestation + P0: Whole Body: Mortality
[13] = reproduction developmental, duration: 54 days, M/F, Wistar, generation: F1, F1: Whole Body: Litter Weight
[14] = short-term, duration: 28 days, M, Wistar, Adrenal: Adrenal Gland Histopathology + Dermal: Ruffled Fur + Liver: Liver Histopathology + Nerve: Nervous Tissue Histopathology + …
[15] = short-term, duration: 28 days, M, Wistar, Adrenal: Adrenal Gland Weight, Relative + Liver: Liver Weight, Absolute + Lung: Lung Histopathology + Lung: Respiration Distress + Thymus: …
[16] = short-term, duration: 28 days, M, Wistar, Endocrine: Adrenal: Adrenal Gland Histopathology + Endocrine: Adrenal: Adrenal Gland Weight, Absolute + Endocrine: Adrenal: Adrenal Gland …
[17] = short-term, duration: 28 days, M, Wistar, Other Systems: Eye: Ophthalmology + Other Systems: Lung: Lung Histopathology + Other Systems: Lung: Respiration Distress
[18] = subchronic, duration: 54 days, F, Wistar, Adrenal: Adrenal Gland Histopathology + Liver: Liver Histopathology + Nerve: Nervous Tissue Histopathology + Whole Body: Function …
[19] = subchronic, duration: 54 days, F, Wistar, Dermal: Ruffled Fur + Lung: Lung Histopathology + Lung: Respiration Distress + Peripheral Nervous System: Paresis + Thymus: Thymus …
[20] = subchronic, duration: 54 days, F, Wistar, Endocrine: Adrenal: Adrenal Gland Histopathology + Endocrine: Adrenal: Adrenal Gland Weight, Absolute + Endocrine: Adrenal: Adrenal Gland …
[21] = subchronic, duration: 54 days, F, Wistar, Other Systems: Eye: Ophthalmology + Other Systems: Lung: Lung Histopathology + Other Systems: Lung: Respiration Distress

In the case of CCO[Si](CCC(F)(F)C(F)(F)C(F)(F)C(F)(F)C(F)(F)C(F)(F)F)(OCC)OCC [Triethoxy((perfluorohexyl)ethyl)silane], the FEL [1] is reported as 125 mg/kg-day, the LOAEL [2, 3] is reported as 100 mg/kg-day and the NOAEL [2, 3] is reported as 50 mg/kg-day. For the same molecule, the LOAEL [2, 4] was 100 mg/kg-day, the NOAEL [2, 4] was 50 mg/kg-day and the NEL ([2]; reproduction developmental, duration: 28 days, M, Wistar, generation: P0, P0: Reproductive Organs: Reproductive Organ Histopathology) was 125 mg/kg-day. The LOAEL [2, 5] was 125 mg/kg-day, the NOAEL [2, 5] was 100 mg/kg-day and the LEL [2, 6] was 125 mg/kg-day. The NEL [2, 6] was 100 mg/kg-day, the LOAEL [2, 7] was 100 mg/kg-day and the NOAEL [2, 7] was 50 mg/kg-day. It also gave an NEL ([2]; reproduction developmental, duration: 54 days, F, Wistar, generation: P0, P0: Reproductive Organs: Reproductive Organ Histopathology + P0: Whole Body: Fertility Index) of 125 mg/kg-day, an LOAEL [2, 8] of 125 mg/kg-day and an NOAEL [2, 8] of 100 mg/kg-day. The LOAEL [2, 9] was 125 mg/kg-day, the NOAEL [2, 9] was 100 mg/kg-day and the NEL ([2]; reproduction developmental, duration: 54 days, F, Wistar, generation: P0, P0: Uterus: Implantation) was 125 mg/kg-day. For the same molecule, the LEL [2, 10] was 100 mg/kg-day, the NEL [2, 10] was 50 mg/kg-day and the LEL [2, 11] was 125 mg/kg-day. It also gave an NEL [2, 11] of 100 mg/kg-day, an LEL [2, 12] of 125 mg/kg-day and an NEL [2, 12] of 100 mg/kg-day. It also gave an NEL ([2]; reproduction developmental, duration: 54 days, M/F, Wistar, generation: F1, F1: Whole Body: Dams with Liveborn Pups) of 125 mg/kg-day, an NEL ([2]; reproduction developmental, duration: 54 days, M/F, Wistar, generation: F1, F1: Whole Body: Dams with Stillborn Pups + F1: Whole Body: External Abnormalities + F1: Whole Body: Litter Size + F1: Whole Body: Male Pups …) of 125 mg/kg-day and an LEL [2, 13] of 100 mg/kg-day. It also gave an NEL [2, 13] of 50 mg/kg-day, an LEL [2, 14] of 100 mg/kg-day and an NEL [2, 14] of 50 mg/kg-day. For the same molecule, the NEL ([2]; short-term, duration: 28 days, M, Wistar, Adrenal: Adrenal Gland Weight, Absolute + Blood: Hematology, Unspecified + Eye: Ophthalmology, Unspecified + Kidney: Urinalysis, Unspecified…) was 150 mg/kg-day, the LEL [2, 15] was 150 mg/kg-day and the NEL [2, 15] was 100 mg/kg-day. The LOAEL [2, 16] was 100 mg/kg-day, the NOAEL [2, 16] was 50 mg/kg-day and the NOAEL ([2]; short-term, duration: 28 days, M, Wistar, Hematologic: Blood: Hematology, Unspecified + Urinary: Kidney: Urinalysis) was 125 mg/kg-day. The LOAEL [2, 17] was 125 mg/kg-day, the NOAEL [2, 17] was 100 mg/kg-day and the LEL [2, 18] was 100 mg/kg-day. The NEL [2, 18] was 50 mg/kg-day, the NEL ([2]; subchronic, duration: 54 days, F, Wistar, Adrenal: Adrenal Gland Weight, Absolute + Adrenal: Adrenal Gland Weight, Relative + Blood: Hematology, Unspecified + Eye: Ophthalmology, …) was 150 mg/kg-day and the LEL [2, 19] was 150 mg/kg-day. The NEL [2, 19] was 100 mg/kg-day, the LOAEL [2, 20] was 100 mg/kg-day and the NOAEL [2, 20] was 50 mg/kg-day. It also gave an NOAEL ([2]; subchronic, duration: 54 days, F, Wistar, Hematologic: Blood: Hematology, Unspecified + Urinary: Kidney: Urinalysis) of 125 mg/kg-day, an LOAEL [2, 21] of 125 mg/kg-day and an NOAEL [2, 21] of 100 mg/kg-day. For the same molecule, the LEL ([2]; subchronic, duration: 54 days, F, Wistar, Whole Body: Maternal Body Weight) was 50 mg/kg-day.
